Data set [1] has as its target T1, RocB (Bacillus subtilis, UniProt P39635).
T1 sequence (P39635 1-566): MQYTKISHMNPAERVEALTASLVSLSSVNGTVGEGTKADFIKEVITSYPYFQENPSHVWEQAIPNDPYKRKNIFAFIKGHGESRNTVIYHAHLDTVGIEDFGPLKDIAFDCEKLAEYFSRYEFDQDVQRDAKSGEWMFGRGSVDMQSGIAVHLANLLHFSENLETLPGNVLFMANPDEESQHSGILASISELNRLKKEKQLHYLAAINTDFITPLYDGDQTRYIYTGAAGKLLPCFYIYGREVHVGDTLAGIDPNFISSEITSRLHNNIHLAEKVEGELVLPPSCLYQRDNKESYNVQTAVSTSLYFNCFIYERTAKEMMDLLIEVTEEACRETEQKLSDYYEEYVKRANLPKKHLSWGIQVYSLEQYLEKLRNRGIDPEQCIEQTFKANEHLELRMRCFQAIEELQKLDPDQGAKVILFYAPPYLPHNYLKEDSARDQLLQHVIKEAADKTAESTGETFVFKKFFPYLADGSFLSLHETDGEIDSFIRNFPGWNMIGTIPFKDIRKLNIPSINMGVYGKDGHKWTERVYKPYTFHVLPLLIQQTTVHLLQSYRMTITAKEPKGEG
Description: coupled RocB-RocD assay, P5C-o-aminobenzaldehyde complex at […] nm. Type of data set: biochemical. The note with it: 2 mM MnCl2, PBS, 25 °C, 1 µM RocD, 10 mM 2-oxoglutarate, 80 µM PLP.

Data set [2] has as its target truncated RocR (RocR^trunc, central domain) (Bacillus subtilis, UniProt P38022). Conditions: 15 mM ATP, 15 mM MgCl2, pH 7.5, room temperature, no effector.
Data set [3] concerns the molecule itself. Description: dynamic light scattering.

The term stoichiometry N denotes the number of molecules, sites or subunits per partner or assembly.

Take `NC(=O)NCCC[C@H](N)C(=O)O` [citrulline]: in data set [1], the KM is on record as 7.355 mM l^-1.
For `Nc1ncnc2c1ncn2[C@@H]1O[C@H](COP(=O)(O)OP(=O)(O)OP(=O)(O)O)[C@@H](O)[C@H]1O` [ATP], in data set [2], the kobs entry is recorded as “the truncated protein was active irrespective of the presence of potential effector molecules”.

B1: RocR, transcription activator of the roc genes (6xHis-RocR) (natural protein, Bacillus subtilis, UniProt P38022 1-461, looked up)
chain: MVKDSEFLTLVFQSILDEIDVGLHVVDEHGNTIVYNNKMMQIEDMEKHDVLNKNLMDVFMFSKQQDSTLVQALQEGKTIKNVKQSYFNNKGQEITTINHTYPIVQDGKIRGAVEIAKDVTKLERLIRENMNKKGSTTYTFDSILGTSPAIQDVIENAKRATRTSSSVLLAGETGTGKELFAQSIHNGSDRSGGPFISQNCAALPDSLVESILFGTKKGAFTGAVDQPGLFEQAHGGTLLLDEINSLNLSLQAKLLRALQERKIRRIGSTKDTPIDVRIIATMNEDPIDAIAGERMRKDLYYRLSVVTLIIPPLRERKEDILLLASEFIQKNNHLFQMNVEHISDDVKQFFLSYDWPGNIRELEHMIEGAMNFMTDEQTITASHLPYQYRMKIKPADIPEPETPRHQPAADLKEKMESFEKYVIENVLRKHGHNISKAAQELGISRQSLQYRLKKFSHSSNE
Take B1: the “stoichiometry N” value in data set [3] was around 2.
